Laboratory results as given in patent US20220317115A1, “3D ORGANOIDS FOR PERSONALIZED ORAL CANCER THERAPY” (THE TRUSTEES OF COLUMBIA UNIVERSITY IN THE CITY OF NEW YOURK, priority 2019, published 2022).
pIC50: −log10 of the molar value. Entries after “also recorded” stand apart in the source; their conditions may differ. Read-outs that look alike come from different tables or passages of the source.

Experiments:
EAC PDO = experiment: IC50 from drug-treated EAC PDO, mean organoid size by Celigo Imaging Cytometer; assay type: cell-based, human; conditions: 72 h-exposure, R squares 0.5874 (Cisplatin) and 0.8652 (Paclitaxel), read-out: IC50 (organoid size normalized by vehicle-treated control as 100%)
Procedure: EAC PDO size were evaluated by Celigo Imaging Cytometer measuring the mean organoid size following 72 h-exposure to Cisplatin and Paclitaxel at indicated final concentrations. Organoid size was normalized by vehicle-treated control as 100%.
To evaluate organoid growth, 3D organoid structures were monitored during culture, and their size is documented by a conventional phase-contrast inverted microscope or highthroughput cell imaging instruments (e.g., Celigo Image Cytometer, Nexcelom Bioscience) with the capacity of automated multi-well rapid imaging and quantitative analysis of organoid size, number and structure.
• 1. Grow organoids in 24-well or 96-well plates (Basic Protocols 1 and 2). Use at least three (3) wells per condition as biological replicates. • 2. Acquire phase-contrast images (FIGS. 37A-37B) manually via a conventional microscopy with a camera. Use ImageJ software to measure the diameter of at least 5 organoids per well. Alternatively, Celigo imaging cytometer can not only acquire phase-contrast images but calculate mean organoid area for all organoids imaged. Such assays can be performed in conjunction with drug treatment (FIG. 38) (Basic Protocol 6). • 3. Repeat step 2 every other day. • 4. Generate growth curves by plotting organoid diameter or area at each time point.
• 1. Remove the spent culture medium by aspiration. • 2. […]

[1] = system: 4NQO-induced tumor organoids (Aldh2*2 vs Aldh2*1); experiment: CellTiter-Glo 3D cell viability assay of 4NQO-induced tumor organoids with Aldh2 SNP genotypes; assay type: cell-based, mice; conditions: for Response of Aldh2*2 (Aldh2 mutant) tumor organoids to chemotherapy agent compared with Aldh2*1 (wild-type) tumor organoids: treatment for 3 days, cisplatin 80 μM, 5FU data not shown
Procedure: 4NQO-induced tumor organoids with indicated Aldh2 SNP genotypes were analyzed by H&E staining for cellular abnormality in FIG. 5A and by […] CellTiter-Glo® 3D cell viability assays, following treatment for 3 days with cisplatin (80 μM) along with or without 10 μM Alda-1, an Aldh2 activator in FIG. 5B. *, p<0.01 vs. Aldh21; ns, not significant (n=6).
Aldh2*2 is a common single nucleotide polymorphism (SNP) strongly associated with OSCC. To evaluate the role of Aldh2*2 in 4NQO-induced neoplastic cells in 3D organoids, Aldh2*2 mice expressing mutant Aldh2 protein (Aldh2^E487K) were compared with wild-type Aldh2*1 (control) mice. 3D organoids were analyzed from tumors detected in mice sacrificed at 26 weeks from the start of 4NQO treatment. […] Thus, individuals with Aldh2*2 SNP may respond to chemotherapy better despite its strong association with a risk of OSCC tumor development. It was hypothesized that pharmacological Aldh2 inhibition by Disulfiram (Antabuse, used a treatment of chronic alcoholism) augments the chemotherapy effects in OSCC in individuals with Aldh2*1. Thus, patient-derived 3D organoids may serve as a platform for new translational applications in personalized medicine for therapy of OSCC and potentially other squamous cell carcinomas.
Oral 3D organoids (FIG. 6): 3D organoids will be generated according to the published protocols (Kasagi et al. 2018; Natsuizaka et al. 2017; Whelan et al. 2017). In 24-well plates, 2,000 cells are seeded in Matrigel (50 μl/well). Organoids grow within 7-10 days to form 50-100 μm spherical structures (100% success, n=34 for human normal biopsies) (Kasagi et al. 2018). For quality control purposes, an OSCC cell line will be used (Kijima et al. 2019). Time-lapse analysis of growing organoids will be done under light microscopy to determine their average size and morphology. organoid formation rate (OFR; the percentage of the number of organoids formed at day 10 per total number of cells seeded at day 0) will be determined. Organoids will then be processed for DNA, RNA and flow cytometry, and histology. […]

esophageal 3D organoids = experiment: Modeling reactive epithelium in esophageal organoids with IL-13; assay type: cell-based, human; conditions: IL-13 stimulation (10 ng/ml in protocol), compared to untreated organoids
Excerpt: Reactive changes in esophageal epithelium are induced by multiple soluble factors secreted by immune cells and fibroblasts. The function of these factors in disease development can be modeled and evaluated in esophageal organoids. Here we provide an example of such an experiment by treating normal esophageal organoids with interleukin 13 (IL-13) to model reactive changes induced in esophageal epithelium by eosinophils; however, any bioactive compounds (cytokines, antibodies, small molecule inhibitors) can be utilized to model pathologic conditions and/or treatment strategies. Representative images of esophageal organoids treated with IL-13, as well as gene expression profiles of select EoE-relevant genes (Blanchard et al., 2007; Kasagi et al., 2019), can be found in FIGS. 35A-35B.
Additional Materials (see also Basic Protocol 1) • Interleukin 13 (IL-13; R&D Systems, cat. no. 213-ILB-005) • Reconstituted IL-13 (reconstitute lyophilized IL-13 to 100 μg/ml in PBS, aliquot, and store at −80° C.; avoid repeated freeze-thaw cycles) • Growing culture of esophageal organoids (see Basic Protocol 1) • 1. Remove spent medium. • 2. Dispense 500 μl KSFMC containing 10 ng/ml IL-13. • 3. Observe organoid growth under a phase-contrast microscope. • 4. Harvest organoids for histology and RNA isolation, as described in Basic Protocol 3. • 5. Evaluate changes in morphology and gene expression.

Q: `N.N.[Cl][Pt][Cl]` [Cisplatin] was tested. Which pIC50 (EAC PDO) did it give?
A: The pIC50 was 5.15.

Q: And the “Response of Aldh2*2 (Aldh2 mutant) tumor organoids to chemotherapy agent compared with Aldh2*1 (wild-type) tumor organoids” value [1]?
A: Its value is “better than Aldh2*1”.

Q: With “IL-13: eosinophilic esophagitis (EoE)-relevant cytokine, recombinant (R&D Systems)” as the compound, how does the “Reactive epithelial change (basal cell hyperplasia) in organoids” value (esophageal 3D organoids) read?
A: Its value is “induces BCH-like changes; also recorded: Basal cell hyperplasia is evident”.

Q: Which “Response of Aldh2*2 (Aldh2 mutant) tumor organoids to chemotherapy agent compared with Aldh2*1 (wild-type) tumor organoids” value [1] does the source give for `O=c1[nH]cc(F)c(=O)[nH]1` [5FU, 5-Fluorouracil] here?
A: The value was “better than Aldh2*1”.

Q: With `CC(=O)O[C@H]1C(=O)[C@@]2(C)[C@H]([C@H](OC(=O)c3ccccc3)[C@]3(O)C[C@H](OC(=O)[C@H](O)[C@@H](NC(=O)c4ccccc4)c4ccccc4)C(C)=C1C3(C)C)[C@]1(OC(C)=O)CO[C@@H]1C[C@@H]2O` [Paclitaxel] as the compound, how does the pIC50 (EAC PDO; Homo sapiens) read?
A: Its pIC50 is 5.64.

Q: With `O=C(NCc1ccc2c(c1)OCO2)c1c(Cl)cccc1Cl` [Alda1] as the compound, how does the “Effect on cisplatin-mediated cytotoxicity in Aldh2*2 tumor 3D organoids” value ([1]; 10 μM Alda-1 with cisplatin 80 μM, 3 days) read?
A: Its value is “cisplatin-mediated cytotoxicity was reversed”.
